“Also recorded” adds a separate entry of the source. Where two headings read alike, the source gives them in different places.
Assays:
DRO cells [1] = assay: DRO cell proliferation (cell counts over six days); format: cell-based, human; settings: for IC50: Homo sapiens
Experimental: . Cells were treated every 48 hours over six days. Cell numbers were counted and data were plotted as mean values ±S.D. The thiazolidinediones inhibited cell proliferation of DRO cells in a dose responsive fashion (FIG. 3B). […]. The EC50 concentrations were in close agreement with the IC50 concentrations for each compound (FIG. 3B).
. […] Cell numbers were counted and data were plotted as mean values ±S.D. (FIG. 9D).
DRO90-1 (DRO) and ARO81 (ARO) cells were derived from primary cultures of human anaplastic thyroid carcinoma tumors that were obtained from Dr. G. J. Juillard (University of California-Los Angeles, Los Angeles, Calif.), and KTC-2 and KTC3 cells were obtained from Dr. Junichi Kurebayashi (Podtcheko et al., J. Clin. Endocrinol. Metab., 88:1889-1896 (2003) and Pushkarev et al., Molecular mechanisms of the Effects of Low Concentrations of Taxol in Anaplastic Thyroid Cancer Cells. Endocrinology: en. 2004-0127 (2004)). Cells were cultured in RPMI 1640 medium (Cellgro, Herndon Va.) supplemented with 10% charcoal-stripped fetal bovine serum (Hyclone), non-essential amino acids, sodium pyruvate, and penicillin-streptomycin-amphotericin B at 37° C. in a humidified atmosphere with 5% CO^2. Charcoal-stripped serum was used to exclude endogenous PPAR ligands contained in serum. For proliferation studies, cells were plated in triplicate in 12-well culture plates at initial concentrations of 2×10^4 cells/well. After overnight incubation, cells were treated with 10 nM RS5444 or DMSO diluent (Sigma) for 6 days with medium, and drug changed every 48 hours. After 6 days, cells were washed with PBS (Cellgro), trypsinized, and counted by Beckman Coulter Counter (Beckman Instruments, Fullerton Calif.). […]. Cells were treated with either DMSO or 10 nM RS5444 (24 hours). After treatment, phase images were obtained on an inverted microscope. For real time PCR studies, cells were plated in 60 mm plates at 50% confluence and treated with 10 nM RS5444 for indicated incubation periods. […].
Cells were either plated in triplicate at 7.5×10^4 cells/mL in 6-well plates or 2×10^4 cells/well in 12-well plates, allowed to adhere overnight, and then transfected for 24 to 72 hours with 2 to 5 μg of either scrambled, p21^WAF1/CIP1 (1022539), RhoB (SI00058933) or PPAR-γ-specific siRNA duplexes (Qiagen Valencia, Calif.) using RNAiFect reagent (Qiagen). The DNA target sequence for PPAR-γ was 5′-[…]-3′. After transfection, cells in the 6-well plates were treated with either DMSO diluent or 10 nM RS5444 for 24 hours and then analyzed by either real time PCR or immunoblotting. Cells in the 12-well plates were exposed for 6 days with medium, and drug changed every 48 hours. After 6 days, cells were washed with PBS (Cellgro), trypsinized, and counted by Beckman Coulter Counter.

DRO cells [2] = assay: Western blot of RhoB, RhoA, p21, cyclin E polypeptides in DRO cells; format: cell-based, human
Experimental: RhoB and p21^WAF1/CIP1 polypeptide expression also was examined in ATC cells to determine the time course of induction of each polypeptide following stimulation with a PPARγ agonist (FIG. 6). […]. Polypeptide lysates were prepared and examined for RhoB, RhoA and β-actin expression. […]; FIG. 6A).
The time course for induction of RhoB and p21^WAF1/CIP1 was determined using Western blotting.
DRO90-1 (DRO) and ARO81 (ARO) cells were derived from primary cultures of human anaplastic thyroid carcinoma tumors that were obtained from Dr. G. J. Juillard (University of California-Los Angeles, Los Angeles, Calif.), and KTC-2 and KTC3 cells were obtained from Dr. Junichi Kurebayashi (Podtcheko et al., J. Clin. Endocrinol. Metab., 88:1889-1896 (2003) and Pushkarev et al., Molecular mechanisms of the Effects of Low Concentrations of Taxol in Anaplastic Thyroid Cancer Cells. Endocrinology: en. 2004-0127 (2004)). Cells were cultured in RPMI 1640 medium (Cellgro, Herndon Va.) supplemented with 10% charcoal-stripped fetal bovine serum (Hyclone), non-essential amino acids, sodium pyruvate, and penicillin-streptomycin-amphotericin B at 37° C. in a humidified atmosphere with 5% CO^2. Charcoal-stripped serum was used to exclude endogenous PPAR ligands contained in serum. For proliferation studies, cells were plated in triplicate in 12-well culture plates at initial concentrations of 2×10^4 cells/well. After overnight incubation, cells were treated with 10 nM RS5444 or DMSO diluent (Sigma) for 6 days with medium, and drug changed every 48 hours. After 6 days, cells were washed with PBS (Cellgro), trypsinized, and counted by Beckman Coulter Counter (Beckman Instruments, Fullerton Calif.). For morphology studies, cells were plated in 12 well plates at initial concentrations of 2.5×10^4 cells/well. Cells were treated with either DMSO or 10 nM RS5444 (24 hours). After treatment, phase images were obtained on an inverted microscope. For real time PCR studies, cells were plated in 60 mm plates at 50% confluence and treated with 10 nM RS5444 for indicated incubation periods. […].
Cells were collected and lysed in RIPA buffer containing 50 mM Tris, 5 mM EDTA, 150 mM NaCl, 0.1% SDS, 0.5% Deoxycholate, 1% NP40, and protease inhibitor cocktail (Roche) followed by centrifugation. Excised tumor tissues were lysed in 50 mM Tris pH 8.0+1% SDS. Collected supernatants were, analyzed for protein concentration using Pierce's BCA assay, with 25 μg protein loaded per gel lane (Invitrogen) with later transfer to Immobilon-P membranes. The membranes were hybridized with antibodies (Santa Cruz, Cell Signaling, Sigma-Aldrich, St. Louis Mo.) as indicated overnight at 4° C. followed by treatment with species-specific horseradish peroxidase IgG (Jackson labs) for 45 minutes at room temperature. Detection was performed using Supersignal West Pico chemoluminescence kit (Pierce). Quantification of bands was performed in triplicate using Image Quant 5.2 (Molecular Dynamics, Sunnyvale Calif.).

PPARγ = molecular target: T1, PPARγ (Homo sapiens, UniProt P37231); assay: PPRE3-tk-luc reporter (dual luciferase) assay in DRO cells; format: cell-based; set-up: endogenous in cells; host or cells: DRO90-1 (DRO) human anaplastic thyroid carcinoma cells
T1 sequence (P37231 1-505): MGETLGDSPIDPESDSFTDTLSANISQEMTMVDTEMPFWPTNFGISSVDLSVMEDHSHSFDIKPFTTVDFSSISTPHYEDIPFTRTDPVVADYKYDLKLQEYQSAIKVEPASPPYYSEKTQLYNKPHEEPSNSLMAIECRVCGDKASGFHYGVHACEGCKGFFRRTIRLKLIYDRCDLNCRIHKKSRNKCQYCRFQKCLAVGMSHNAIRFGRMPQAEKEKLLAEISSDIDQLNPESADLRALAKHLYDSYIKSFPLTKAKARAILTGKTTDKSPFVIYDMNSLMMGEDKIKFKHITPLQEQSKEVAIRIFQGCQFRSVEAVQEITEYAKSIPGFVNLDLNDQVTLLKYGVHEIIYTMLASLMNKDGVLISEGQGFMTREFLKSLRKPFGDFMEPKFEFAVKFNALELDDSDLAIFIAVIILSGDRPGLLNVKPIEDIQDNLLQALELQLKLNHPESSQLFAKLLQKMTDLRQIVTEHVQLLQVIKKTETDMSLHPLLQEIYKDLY
Experimental: The effects of PPARγ agonists on DRO cells were investigated. […] Firefly luciferase activity was normalized to renilla […] activity (RLU) and plotted as mean values ±S.D. (FIG. 3A).
Cells were transfected with siRNA for 72 hours followed by transfected with a PPRE3-tk-luc reporter and treatment with 10 nM RS5444 for 24 hours. […] Cotransfection with renilla luciferase allowed for normalization to relative light units (RLU).
Cells were plated in 6-well culture plates at initial concentrations of 2×10^5 cells/well. After overnight incubation, cells were transfected with PPRE/luc and CMV/renilla luciferase plasmid using Lipofectamine 2000 (Invitrogen), and after 24 hours, cells were treated with PPAR-γ agonists at indicated concentrations. After 24 hours of drug treatments, cells were washed with PBS and lysed in 1× reporter lysis buffer (Roche), and luciferase activity was measured with a Dual Luciferase assay kit (Promega, Madison Wis.) with a luminometer (Veritas/Turner Biosystems). The enzyme activity was normalized for efficiency of transfection on the basis of renilla activity levels and reported as relative light units (RLU).

[3] = DRO cells treated every 48 hours over six days, read-out: IC50, concentration at which 50% of cell proliferation was inhibited

For `Cc1c(C)c2c(c(C)c1O)CCC(C)(COc1ccc(CC3SC(=O)NC3=O)cc1)O2` (stereo not drawn) [troglitazone], the IC50 (DRO cells [1]; DRO cells treated every 48 hours for six days (FIG. 3B legend), read-out: IC50, DRO cell number) was roughly 1400 nM and the IC50 (DRO cells [1]; [3]) was roughly 1410 nM.
`COC(=O)[C@H](CCSC)NC(=O)c1ccc(NC[C@@H](N)CS)cc1-c1ccccc1` [FTI-277] was tested, and the “RhoB and p21 expression (Western blot)” value (DRO cells [2]; 24 hours, 10 nM RS5444, 1 ng/mL FK-228, 10 μM FTI-277) was “upregulation of both RhoB and p21 expression” and the “inhibition of cell proliferation with RhoB vs scrambled siRNA” value (DRO cells [1]; DRO cells transfected with RhoB or scrambled siRNA, treated every 48 hours for 6 days) was “dependent upon the upregulation of RhoB polypeptide to inhibit cell proliferation”.
`CN(CCOc1ccc(CC2SC(=O)NC2=O)cc1)c1ccccn1` (stereo not drawn) [rosiglitazone] showed an IC50 (DRO cells [1]; [3]) of roughly 75 nM.
`O=C(Nc1ccccc1)c1cc([N+](=O)[O-])ccc1Cl` [GW9662] was tested, and the “effect of antagonist on RS5444-induced RhoB polypeptide expression” value (DRO cells [2]; GW9662 plus 10 nM RS5444, 24 hours) was “abolished; also recorded: blocked the ability of RS5444 to elevate RhoB polypeptide expression”, the “effect on RS5444 inducible luciferase activity” value (PPARγ; 10 μM GW9662 followed by 10 nM RS5444 one hour later) was “complete loss of RS5444 inducible luciferase activity” and the “effect on agonist activation of PPARγ-induced luciferase activity” value (PPARγ; DRO cells pretreated 5 minutes with 10 μM GW9662 before 10 nM RS5444, 1 μM rosiglitazone or 10 μM troglitazone) was “abolished”. The “effect on growth inhibition by TZDs” value (DRO cells [1]; DRO cells pretreated one hour with 10 μM GW9662 before 10 nM RS5444, 1 μM rosiglitazone or 10 μM troglitazone, every 48 hours over six days) was “no longer growth inhibited”.
